# Laboratory results: patent publication US20170239351A1, “Therapeutic Combinations of a BTK Inhibitor, a PI3K Inhibitor, a JAK-2 Inhibitor, a PD-1 Inhibitor, and/or a PD-L1 Inhibitor” (Acerta Pharma B.V., priority 2014, published 2017)
# Entries after “also recorded” stand apart in the source; their conditions may differ.
# Columns and labels:
# relapsed/refractory CLL = conditions: human, in vivo
# [1] = Standard drug metabolism and pharmacokinetics (DMPK) assays; assay type: in vitro ADME
# ID8 ovarian cancer = experiment: ID8 syngeneic orthotropic ovarian cancer murine model; assay type: in vivo, mice
# Source text: Human ovarian cancer models, including the ID8 syngeneic orthotropic ovarian cancer model and other animal models, are described in Fong and Kakar, J. Ovarian Res. 2009, 2, 12; Greenaway, et al., Gynecol. Oncol. 2008, 108, 385-94; Urzua, et al., Tumour Biol. 2005, 26, 236-44; Janat-Amsbury, et al., Anticancer Res. 2006, 26, 3223-28; Janat-Amsbury, et al., Anticancer Res. 2006, 26, 2785-89. […] The results of the study are shown in FIG. 100, FIG. 101, FIG. 102, FIG. 103, FIG. 104, FIG. 105, FIG. 106, and FIG. 107.
# Each cohort consisted of 12 mice. Every two weeks mice are injected with luciferin, and tumor growth was monitored using the Xenogen system (Caliper Life Sciences, PerkinElmer, Hopkinton, Mass., USA). Tumor size was measured by calculated flux.
# The experiments were performed as described in Example 7.
# [2] = system: KPC derived mouse pancreatic cancer cells; experiment: Orthotopic pancreatic cancer model (KPC-derived cells); assay type: in vivo, C57BL/6 mice; conditions: 15 mg/kg oral of each drug
# Protocol: Orthotopic pancreatic cancer models in mice are clinically relevant, benefit from tissue site-specific pathology, and allow for study of metastasis. Qiu and Su, Methods Mol. Biol. 2013, 980, 215-223. A cell line derived from KrasG12D; Trp53R172H; Pdx1-Cre (KPC) mice was orthotopically implanted into the head of the pancreas after 35 passages. Based on the mice background from where the cell lines were generated, 1×10^6 cells were injected in C57BL/6 mice. Throughout the experiment, animals were provided with food and water ad libitum and subjected to a 12-h dark/light cycle. Animal studies were performed in accordance with the U.S. Public Health Service “Guidelines for the Care and Use of Laboratory Animals” (IACUC). After euthanization, pancreatic tumors were dissected out, weighed and single cell suspensions were prepared for flow cytometry analysis.
# Results of the experiments are shown in FIG. 110, which illustrates tumor growth suppression in the orthotopic pancreatic cancer model. The statistical p-value (presumption against null hypothesis) is shown for each tested single active pharmaceutical ingredient and for the combination against the vehicle.
# In this study, KrasG12D;Trp53R172H; Pdx1-Cre (KPC) derived mouse pancreatic cancer cells (10,000 cells) were injected into the pancreases of 24 female mice. After one week of expansion, drug treatment was started in mice developing pancreatic tumors.
# Single cell suspensions from tumor samples were prepared as follows. Mouse tumor tissue was collected and stored in PBS/0.1% soybean trypsin inhibitor prior to enzymatic dissociation. […] Following surface staining, samples were acquired on a BD Fortessa and analyzed using FlowJo (Treestar) software.
# BTK [3] = biological target: T1, BTK (Mus musculus, UniProt P35991); experiment: Molecular probe assay of irreversible BTK occupancy in MDSCs; assay type: in vivo, tumor bearing PDA mice; conditions: 15 mg/kg BID; Day 8 at 4 hours post dose (N=5)
# T1 construct: MDSCs were purified from tumor bearing PDA mice; endogenous in cells; host or cells: granulocytic and monocytic MDSCs purified from tumour-bearing PDA mice
# T1 sequence (P35991 whole entry): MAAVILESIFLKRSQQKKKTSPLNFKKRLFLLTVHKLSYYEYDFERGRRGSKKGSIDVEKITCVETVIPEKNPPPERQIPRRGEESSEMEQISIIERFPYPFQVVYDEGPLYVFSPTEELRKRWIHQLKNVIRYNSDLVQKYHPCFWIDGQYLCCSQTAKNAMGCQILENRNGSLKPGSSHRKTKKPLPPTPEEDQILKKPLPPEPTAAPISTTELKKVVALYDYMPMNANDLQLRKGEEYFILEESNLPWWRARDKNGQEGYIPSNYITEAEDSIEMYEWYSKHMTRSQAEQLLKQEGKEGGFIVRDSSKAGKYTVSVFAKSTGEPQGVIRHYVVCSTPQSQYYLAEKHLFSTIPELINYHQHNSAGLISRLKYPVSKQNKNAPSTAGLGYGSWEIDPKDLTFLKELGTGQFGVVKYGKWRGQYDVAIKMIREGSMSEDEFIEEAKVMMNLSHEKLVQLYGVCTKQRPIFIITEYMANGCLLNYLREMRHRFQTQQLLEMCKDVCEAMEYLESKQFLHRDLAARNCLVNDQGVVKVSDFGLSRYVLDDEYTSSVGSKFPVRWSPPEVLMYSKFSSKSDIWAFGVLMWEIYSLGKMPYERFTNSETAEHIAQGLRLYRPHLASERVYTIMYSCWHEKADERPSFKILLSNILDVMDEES
# Source text: A molecular probe assay was used to calculate the percent irreversible occupancy of total BTK.
# BTK [4] = biological target: BTK (Homo sapiens, UniProt Q06187); experiment: BTK target occupancy in relapsed/refractory CLL patients; assay type: in vivo; conditions: at lower dosage versus ibrutinib
# Chain of BTK (Homo sapiens, UniProt Q06187) (Q06187 whole entry): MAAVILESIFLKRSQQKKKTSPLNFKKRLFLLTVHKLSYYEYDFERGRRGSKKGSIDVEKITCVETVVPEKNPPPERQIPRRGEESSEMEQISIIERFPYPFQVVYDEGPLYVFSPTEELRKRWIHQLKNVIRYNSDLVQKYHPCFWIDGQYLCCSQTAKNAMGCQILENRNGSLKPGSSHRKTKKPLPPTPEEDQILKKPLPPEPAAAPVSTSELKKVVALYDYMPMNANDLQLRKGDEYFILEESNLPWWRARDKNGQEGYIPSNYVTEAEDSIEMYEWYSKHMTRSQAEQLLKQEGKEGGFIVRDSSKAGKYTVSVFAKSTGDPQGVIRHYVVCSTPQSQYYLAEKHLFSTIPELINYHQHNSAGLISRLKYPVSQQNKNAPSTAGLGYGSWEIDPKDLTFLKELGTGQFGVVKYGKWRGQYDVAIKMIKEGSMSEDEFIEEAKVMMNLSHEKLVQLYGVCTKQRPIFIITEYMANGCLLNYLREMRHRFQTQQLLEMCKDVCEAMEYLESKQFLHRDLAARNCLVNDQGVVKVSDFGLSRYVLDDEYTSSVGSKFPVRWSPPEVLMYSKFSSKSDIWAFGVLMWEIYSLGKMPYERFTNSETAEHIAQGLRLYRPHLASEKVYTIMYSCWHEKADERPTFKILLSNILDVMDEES
# B cell lymphoma = experiment: Veterinary clinical trial in canine B cell lymphoma; assay type: in vivo, companion dogs
# Source text: Canine B cell lymphoma exists as a pathological entity that is characterized by large anaplastic, centroblastic or immunoblastic lymphocytes with high proliferative grade, significant peripheral lymphadenopathy and an aggressive clinical course. While some dogs respond initially to prednisone, most canine lymphomas progress quickly and must be treated with combination therapies, including cyclophosphamide, vincristine, doxorubicin, and prednisone (CHOP), or other cytotoxic agents. In their histopathologic features, clinical course, and high relapse rate after initial treatment, canine B cell lymphomas resemble diffuse large B cell lymphoma (DLBCL) in humans. Thus, responses of canine B cell lymphomas to experimental treatments are considered to provide proof of concept for therapeutic candidates in DLBCL.
# Enrollment has completed for both arms.
# Intra-subject dose escalation was allowed. Six of the 11 dogs that initiated at 2.5 or 5 mg/kg once daily were escalated and completed the study with dosages of 10 mg/kg twice daily. Among all the dose cohorts, 8 dogs had shrinkage of target lesions >20%; the best tumor responses were between 45-49% reduction in the sum of target lesions in two dogs. […] CR were defined as disappearance of all evidence of disease per evaluator judgment, and absence of new lesions. Vali, et al., Vet. Comp. Oncol. 2010, 8, 28-37. […]
# Raji cells = experiment: Rituximab ADCC assay (51Cr release), healthy donor NK cells; assay type: cell-based, human; conditions: 1 μM
# [5] = Respiratory function study (GLP safety pharmacology); conditions: doses through 300 mg/kg
# NK cells = experiment: Antibody-stimulated NK cell degranulation (CD107a), flow cytometry; assay type: cell-based, human; conditions: DHL-4 target cells
# EGFR = EGFR (Homo sapiens, UniProt P00533); experiment: EGF-induced EGFR phosphorylation in A431 cells (phosphoflow); conditions: 10 μM (highest concentration tested)
# Chain of EGFR (P00533 25-1210): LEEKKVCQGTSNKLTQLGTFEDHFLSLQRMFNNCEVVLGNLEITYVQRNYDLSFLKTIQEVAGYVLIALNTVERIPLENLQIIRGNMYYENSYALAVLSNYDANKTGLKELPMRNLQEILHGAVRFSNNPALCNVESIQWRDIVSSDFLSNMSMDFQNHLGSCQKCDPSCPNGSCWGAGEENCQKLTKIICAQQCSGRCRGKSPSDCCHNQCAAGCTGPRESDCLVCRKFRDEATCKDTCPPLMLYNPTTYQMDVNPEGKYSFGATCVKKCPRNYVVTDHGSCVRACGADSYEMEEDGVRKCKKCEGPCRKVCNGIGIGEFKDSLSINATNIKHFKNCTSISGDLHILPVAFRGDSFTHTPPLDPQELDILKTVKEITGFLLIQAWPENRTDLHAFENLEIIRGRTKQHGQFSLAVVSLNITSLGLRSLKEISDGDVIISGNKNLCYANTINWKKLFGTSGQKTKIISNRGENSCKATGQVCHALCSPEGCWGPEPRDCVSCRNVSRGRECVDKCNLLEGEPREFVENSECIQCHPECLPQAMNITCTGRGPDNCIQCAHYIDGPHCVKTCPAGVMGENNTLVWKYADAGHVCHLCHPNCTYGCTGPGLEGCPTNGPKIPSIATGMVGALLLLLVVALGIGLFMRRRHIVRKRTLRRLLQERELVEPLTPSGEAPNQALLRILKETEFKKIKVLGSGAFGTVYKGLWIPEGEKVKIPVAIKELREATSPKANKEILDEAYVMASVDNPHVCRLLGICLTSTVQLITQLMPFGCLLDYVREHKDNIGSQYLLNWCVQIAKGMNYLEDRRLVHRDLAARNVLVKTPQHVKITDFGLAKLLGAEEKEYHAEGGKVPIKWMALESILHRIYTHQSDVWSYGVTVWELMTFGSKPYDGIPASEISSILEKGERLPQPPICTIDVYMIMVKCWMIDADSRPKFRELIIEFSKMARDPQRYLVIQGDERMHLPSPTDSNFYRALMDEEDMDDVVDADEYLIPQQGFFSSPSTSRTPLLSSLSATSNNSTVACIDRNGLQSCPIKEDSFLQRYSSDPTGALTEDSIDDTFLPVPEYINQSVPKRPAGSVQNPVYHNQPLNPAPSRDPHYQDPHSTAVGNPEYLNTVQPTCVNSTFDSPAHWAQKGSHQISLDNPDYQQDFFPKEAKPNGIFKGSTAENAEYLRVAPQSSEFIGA
# CD8^+ T cell function = experiment: Cytotoxicity assay for CD8+ T cell function; assay type: cell-based; conditions: relative to vehicle
# [6] = Glutathione binding and depletion in vitro; assay type: in vitro ADME
smiles,measurement,setting,value
"CC#CC(=O)N1CCC[C@H]1c1nc(-c2ccc(C(=O)Nc3ccccn3)cc2)c2c(N)nccn12 [Formula (XVIII), (S)-4-(8-amino-3-(1-(but-2-ynoyl)pyrrolidin-2-yl)imidazo[1,5-a]pyrazin-1-yl)-N-(pyridin-2-yl)benzamide]",maximum tolerated dose (MTD),relapsed/refractory CLL,not reached
same,"solubility, plasma protein binding and oral bioavailability versus ibrutinib",[1],"greater solubility, less plasma protein binding, and better oral bioavailability than ibrutinib"
same,cytolytic CD8^+ T cells,ID8 ovarian cancer; 15 mg/kg/BID oral,increase
same,immunosuppressive B cells in tumor-bearing mice,ID8 ovarian cancer; 15 mg/kg/BID oral,significant reduction
same,immunosuppressive tumor associated Tregs,ID8 ovarian cancer; 15 mg/kg/BID oral,significant reduction
same,ID8 ovarian cancer growth,"ID8 ovarian cancer; Formula (XVIII) 15 mg/kg BID oral, antibody 150 μg",impairs ID8 ovarian cancer growth
same,immunosuppressive tumor associated myeloid cells and Tregs,[2],reduce immunosuppressive tumor associated myeloid cells and Tregs
same,tumor volume versus vehicle,[2],statistically significant reductions in tumor volume
same,BTK occupancy in granulocytic and monocytic MDSC compartment,BTK [3],Complete BTK occupancy
same,BTK target occupancy,BTK [4],improved BTK target occupancy
same,complete responses (CR),"B cell lymphoma; Arm 1: 21 dogs, Arm 2: 10 dogs",not observed
same,Median time to best response,"B cell lymphoma; dog, in vivo",7 days
same,effect on rituximab-mediated ADCC,Raji cells,not inhibited
same,respiratory function,[5],no treatment-related adverse effects
same,inhibition of rituximab-stimulated NK cell degranulation,NK cells,< 2%
same,inhibition of EGFR phosphorylation,EGFR,no inhibition; also recorded: does not inhibit EGFR
same,CD8+ T cell function as measured by % cytotoxicity,CD8^+ T cell function,no effect on CD8^+ T cell function
same,glutathione binding and depletion,[6],binds to glutathione but does not deplete glutathione
